Experiments:
[1] = system: Ctenocephalides felis; assay: Ctenocephalides felis - oral test; type: in vivo; conditions: application rate 100 ppm in citrated cattle blood; adult fleas; kill after 2 days
How it was run: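 About 20 unfed adult cat fleas fed through a parafilm membrane on citrated cattle blood containing compound, dosed from a DMSO stock. Kill in % scored after 2 days; 100% means all fleas dead.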

[2] = system: Rhipicephalus sanguineus; assay: Rhipicephalus sanguineus - in vitro contact tests with adult brown dog ticks; type: in vivo
Protocol: Rhipicephalus sanguineus—In Vitro Contact Tests with Adult Brown Dog Ticks
(§1) For the coating of the test tubes, 9 mg of active ingredient are first dissolved in 1 ml of acetone p.a. and then diluted to the desired concentration with acetone p.a. 250 μl of the solution are distributed homogeneously on the inner walls and base of a 25 ml test tube by turning and rocking on an orbital shaker (rocking rotation at 30 rpm for 2 h). With 900 ppm active ingredient solution and internal surface 44.7 cm^2, given homogeneous distribution, an area-based dose of 5 μg/cm^2 is achieved.
After the solvent has evaporated off, the tubes are populated with 5-10 adult dog ticks (Rhipicephalus sanguineus), sealed with a perforated plastic lid and incubated in a horizontal position in the dark at room temperature and ambient humidity. After 48 h, efficacy is determined. To this end, the ticks are knocked to the floor of the tube and incubated on a hotplate at 45-50° C. for not more than 5 min. Ticks which remain motionless on the floor or move in such an uncoordinated manner that they are unable to deliberately avoid the heat by climbing upwards are considered to be dead or moribund.
An efficacy of 100% means that all the ticks were dead or moribund. 0% efficacy means that none of the ticks had been harmed.

[3] = system: Lucilia cuprina; assay: Lucilia cuprina test; type: in vivo; conditions: application rate 100 ppm; L1 larvae in minced horsemeat; kill after 2 days
Protocol: (§2) Solvent: dimethyl sulphoxide
(§3) To produce an appropriate active ingredient formulation, 10 mg of active ingredient are mixed with 0.5 ml of dimethyl sulphoxide, and the concentrate is diluted with water to the desired concentration.
About 20 L1 larvae of the Australian sheep blowfly (Lucilia cuprina) are transferred into a test vessel containing minced horsemeat and the active ingredient preparation of the desired concentration.
After 2 days, the kill in % is determined. 100% means that all the larvae have been killed; 0% means that none of the larvae have been killed.

[4] = system: Boophilus microplus; assay: Boophilus microplus - injection test; type: in vivo; conditions: application rate 20 μg/animal; injected into engorged adult female ticks; laying of fertile eggs, after 7 days
How it was run: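 Engorged adult female Boophilus microplus ticks (5 per dose) each received a 1 μl abdominal injection of compound in DMSO and were held in a climate-controlled room. Efficacy was scored after 7 days from fertile egg laying, with unclear eggs kept until hatching (~42 days); 100% means no fertile eggs.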

[5] = logP determination by HPLC on a reversed-phase column (C18), EEC Directive 79/831 Annex V.A8; type: physicochemical; conditions: for logP^a): HPLC-MS method a), Table I-T3; for log P: HPLC-MS, reversed-phase column (C18); for logP: HPLC, reversed-phase C18, acetonitrile/water with formic acid, 55° C.
[6] = system: Musca domestica; assay: Musca domestica test; type: in vivo; conditions: application rate 100 ppm; adult houseflies; kill after 2 days
Protocol: as §2, §3
Vessels containing a sponge treated with sugar solution and the active ingredient formulation of the desired concentration are populated with 10 adult houseflies (Musca domestica).
After 2 days, the kill in % is determined. 100% means that all of the flies have been killed; 0% means that none of the flies have been killed.

[7] = system: Boophilus microplus Parkhurst strain, SP-resistant; assay: Boophilus microplus - dip test; type: in vivo; conditions: application rate 100 ppm; dip of engorged adult female ticks; laying of fertile eggs, after 7 days
Protocol: Boophilus microplus—Dip Test
Test animals: cattle ticks (Boophilus microplus) Parkhurst strain, SP-resistant
as §2
10 mg of active ingredient are dissolved in 0.5 ml of dimethyl sulphoxide. For the purpose of producing a suitable formulation, the active ingredient solution is diluted with water to the concentration desired in each case.
This active ingredient formulation is pipetted into tubes. 8-10 adult engorged female cattle ticks (Boophilus microplus) are transferred into a further tube with holes. The tube is immersed into the active ingredient formulation, and all the ticks are completely wetted. After the liquid has run out, the ticks are transferred on filter discs into plastic dishes and stored in a climate-controlled room.
Efficacy is assessed after 7 days by laying of fertile eggs. Eggs which are not visibly fertile are stored in a climate-controlled cabinet until the larvae hatch after about 42 days. An efficacy of 100% means that none of the ticks has laid any fertile eggs; 0% means that all the eggs are fertile.

[8] = system: Ctenocephalides felis; assay: Ctenocephalides felis - in vitro contact tests with adult cat fleas; type: in vivo; conditions: application rate 5 μg/cm^2 (=500 g/ha), after 48 h (dead or moribund)
Protocol: Ctenocephalides felis—In Vitro Contact Tests with Adult Cat Fleas
as §1, with “surface area” for “surface”
After the solvent has evaporated off, the tubes are populated with 5-10 adult cat fleas (Ctenocephalides felis), sealed with a perforated plastic lid and incubated in a horizontal position at room temperature and ambient humidity. After 48 h, efficacy is determined. To this end, the test tubes are stood upright and the fleas are knocked to the base of the tube. Fleas which remain motionless at the base or move in an uncoordinated manner are considered to be dead or moribund.
100% efficacy means that all the fleas were dead or moribund. 0% efficacy means that no fleas were harmed.

[9] = application rate 5 μg/cm^2, after 48 h (dead or moribund)

logP [5] | Structure (SMILES) | efficacy [1] | efficacy [2, 9] | efficacy [3] | efficacy [4] | logP^a) [5] | efficacy [6] | efficacy [7] | efficacy [8] | log P [5] | efficacy ([2]; application rate 1 μg/cm^2, after 48 h (dead or moribund))
 | CCc1cc(C(F)(C(F)(F)F)C(F)(F)F)ccc1-n1cc(-c2ccc(Cl)c(C(=O)NC3(C#N)CC3)c2)cn1 [I-T3-38] | 100% | 80% | 100% | 100% | 4.5 | 100% |  |  |  | 
 | CCc1cc(C(F)(C(F)(F)F)C(F)(F)F)ccc1-n1cc(-c2ccc(Cl)c(C(=O)NC3CC3)c2)cn1 [I-T3-39] | 100% |  | 100% | 100% | 4.6 |  | 100% |  |  | 
 | CCc1cc(C(F)(C(F)(F)F)C(F)(F)F)cc(C)c1-n1cc(-c2ccc(Cl)c(C(=O)NC3CSC3)c2)cn1 [I-T3-47] | 100% | 100% | 100% | 100% | 5.0 |  |  |  |  | 
 | O=C(NC1CC1)c1cc(-c2cnn(-c3ccc(C(F)(C(F)(F)F)C(F)(F)F)cc3C(F)(F)F)c2)ccc1Cl [I-T3-52] | 100% | 100% | 100% | 100% | 4.3 | 100% |  |  |  | 
 | Cc1cc(C(F)(C(F)(F)F)C(F)(F)F)cc(C(F)(F)F)c1-n1cc(-c2ccc(Cl)c(C(=O)NCC(F)(F)F)c2)cn1 [I-T3-84] | 100% |  | 100% | 100% | 4.7 | 100% |  | 100% |  | 
 | Cc1cc(C(F)(C(F)(F)F)C(F)(F)F)cc(C(F)(F)F)c1-n1cc(-c2ccc(Cl)c(C(=O)NC3CSC3)c2)cn1 [I-T3-85] | 100% |  | 100% | 100% | 4.7 | 100% |  | 100% |  | 
 | N#CC1(NC(=O)c2cc(-c3cnn(-c4c(Cl)cc(OC(F)(F)F)cc4Cl)c3)ccc2Cl)CC1 [I-T3-87] | 100% |  | 100% | 100% | 3.6 | 100% |  | 100% |  | 
 | O=C(NC1CC1)c1cc(-c2cnn(-c3ccc(OC(F)(F)F)cc3Cl)c2)ccc1Cl [I-T3-90] | 100% | 100% | 100% | 100% | 3.6 | 90% |  |  |  | 
 | CN(C(=O)c1cc(-c2cnn(-c3c(Cl)cc(C(F)(F)F)cc3Cl)c2)cnc1Cl)C1CC1 [I-T3-99] | 100% |  | 100% | 100% |  | 90% | 90% | 100% | 3.5 | 
 | CN(C(=O)c1cc(-c2cnn(-c3c(Cl)cc(C(F)(C(F)(F)F)C(F)(F)F)cc3C(F)(F)F)c2)cnc1Cl)C1CC1 [I-T3-113] | 100% |  | 100% | 100% |  | 100% | 100% | 100% | 4.0 | 
 | Cc1cc(C(F)(C(F)(F)F)C(F)(F)F)cc(C)c1-n1cc(-c2cnc(C)c(C(=O)N(C)C3(C#N)CC3)c2)cn1 [I-T3-115] | 100% |  | 100% | 100% |  | 100% | 100% | 100% | 3.8 | 
 | Cc1cc(C(F)(C(F)(F)F)C(F)(F)F)cc(C(F)(F)F)c1-n1cc(-c2cnc(C)c(C(=O)N(C)C3CC3)c2)cn1 [I-T3-118] | 100% |  | 100% | 100% |  | 100% | 100% | 100% | 3.8 | 
 | Cc1cc(C(F)(C(F)(F)F)C(F)(F)F)cc(C)c1-n1cc(-c2cnc(C)c(C(=O)N(C)C3CC3)c2)cn1 [I-T3-120] | 100% |  | 100% | 100% |  | 100% | 100% | 100% | 3.6 | 
 | Cc1ncc(-c2cnn(-c3c(Cl)cc(C(F)(C(F)(F)F)C(F)(F)F)cc3C(F)(F)F)c2)cc1C(=O)N(C)C1CC1 [I-T3-130] | 100% |  | 100% | 100% |  | 100% | 100% | 100% | 3.8 | 
 | Cc1ncc(-c2cnn(-c3c(Cl)cc(C(F)(C(F)(F)F)C(F)(F)F)cc3Cl)c2)cc1C(=O)N(C)C1CC1 [I-T3-133] | 100% |  | 100% | 100% |  | 100% | 100% | 100% | 3.7 | 
 | CNc1ncc(-c2cnn(-c3c(Cl)cc(C(F)(C(F)(F)F)C(F)(F)F)cc3Cl)c2)cc1C(=O)NC1CC1 [I-T3-136] | 100% |  | 100% | 100% |  | 100% |  | 100% | 3.5 | 
 | O=C(NC1CC1)c1cc(-c2cnn(-c3c(Cl)cc(C(F)(C(F)(F)F)C(F)(F)F)cc3Cl)c2)cnc1NC1CC1 [I-T3-137] | 100% |  | 80% | 100% |  | 100% |  | 100% | 3.4 | 
 | COc1ncc(-c2cnn(-c3c(C)cc(C(F)(C(F)(F)F)C(F)(F)F)cc3C)c2)cc1C(=O)NC1(C#N)CC1 [I-T3-141] | 100% |  | 100% | 100% |  | 100% |  |  | 4.4 | 100%
 | CCN(C(=O)c1cc(-c2cnn(-c3c(Cl)cc(C(F)(F)F)cc3Cl)c2)cnc1Cl)C1CC1 [I-T3-145] | 100% |  | 100% | 100% |  | 90% |  | 100% | 3.8 | 
5 | Cc1cc(C(F)(C(F)(F)F)C(F)(F)F)cc(C)c1-c1cc(-c2ccc(Cl)c(C(=O)NCC(F)(F)F)c2)on1 [I-T22-3] | 100% |  | 100% | 100% |  | 100% |  | 100% |  | 
4.8 | N#CC1(NC(=O)c2cc(-c3cc(-c4c(Cl)cc(C(F)(C(F)(F)F)C(F)(F)F)cc4Cl)on3)ccc2Cl)CC1 [I-T23-2] | 100% |  | 100% | 100% |  | 100% |  | 100% |  | 

From patent US9758485B2, “Compounds for controlling arthropods” (priority 2013, dated 2017)
